Test results reported in paper PMC3591361 (PLoS ONE, 2013).
Values after ≈ are worked out from the molar mass of the structure shown.

Key:
[1] = free drug; stated without reference; cited from earlier work
[2] = combination therapy; weekly i.v. infusion for paclitaxel, twice-weekly i.v. infusion for 17-AAG; cited from earlier work
[3] = in vivo; design: species or system mice; settings: i.v.; for half-life: female, athymic nude (nu/nu), mouse, iv, read-out: t1/2 (elimination half-life); for plasma concentration at 4 h: free drug administration (combined free drugs in DMSO)
Method: Human ovarian cancer SKOV-3 cells (2 x 10^6 in 0.1 ml matrigel/DMEM mixture) were implanted subcutaneously in each flank of 5–6 week-old female athymic nude mice (nu/nu, Charles River, Wilmington, MA). The tumor size was measured using a caliper, and the tumor volume was calculated as ½ × length × width^2.
Once SKOV-3 tumor volumes reached 100–300 mm^3, the mice were randomized into study groups (4 mice per group). […] At 5, 10, 15, 30, 60, 120 and 240 min post injection, whole blood was collected via the retro-orbital bleeding. Normal organs (liver, lung, spleen, kidney and heart) and tumor tissues were harvested at 120 min. […] The HPLC system (Waters, Milford, MA) consisted of a Waters 2795 pump, a Phenomenex (Torrance, CA) C8 column (5 µm, i.d. 4.6 mm × 150 mm) and a Waters 996 photodiode array detector. α-Naphthoflavone was used as an internal standard. […] For tissue homogenate samples, a gradient elution of A: sodium phosphate buffer and B: methanol (0–30 min 46% A, 30.01–40 min 28% A, 40.01–45 min 46% A) was used. The flow rate was 1.5 ml/min at 40°C. The assay methodology was established using blank plasma and tissue homogenate samples spiked with known drug concentrations. […] Representative chromatograms of the pure drugs, an extract of drug-spiked liver tissue, and an extract of blank liver tissue at 227, 333 and 281 nm are shown in Fig. 2.

[4] = In vivo whole-body NIR fluorescence imaging in SKOV-3 tumor-bearing mice; settings: i.v., ICG dose 2 mg/kg, 800 nm channel
Method: ICG-labeled micelles were administered to SKOV-3 tumor-bearing mice via the tail vein injection at an ICG dose of 2 mg/kg. Freshly prepared free ICG solution in HBS was i.v. injected at the same dose to the control mice. Immediately following the injection (0 h) and at 1, 2, 4, 6, 24 and 48 h, the mice were anesthetized under a continuous flow of isoflurane/oxygen, and the spectral fluorescence signals of the whole body images (800 nm channel) were obtained using the Odyssey imaging system.

[5] = Stability of ICG fluorescence in HBS at 37°C; format: physicochemical
Method: To confirm the incorporation of ICG into the micelles, the stability of ICG-labeled micelles was studied at 37°C. Freshly prepared free ICG solution in HBS at the identical concentration was used as a control. At 0, 2, 4, 8, 24 and 48 h, aliquots of the micellar or free ICG solution were analyzed for the fluorescence intensity at 800 nm using Odyssey imaging system (LI-COR Biosciences, Lincoln, NE). All samples were prepared and analyzed in triplicates.

[6] = plasma, combined free drugs in DMSO, 20 mg/kg paclitaxel + 37.5 mg/kg 17-AAG, plasma, mean ± SD, n = 4

| Structure (SMILES) | aqueous solubility [1] [µM] | maximum tolerated dose in cancer patients [2] [mg/m^2] | half-life [3, 6] [min] | plasma concentration at 4 h [3] | clearance of fluorescence signal from the circulation/body [4] | decrease in fluorescence emission intensity ([5]; 8 h) | decrease in fluorescence emission intensity ([5]; 48 h) | AUC ([3]; combined free drugs in DMSO, 20 mg/kg paclitaxel + 37.5 mg/kg 17-AAG, plasma, mean ± SD, n = 4) [uM⋅min] |
| --- | --- | --- | --- | --- | --- | --- | --- | --- |
| C=CCNC1=C2C[C@@H](C)C[C@H](OC)[C@H](O)[C@@H](C)/C=C(\C)[C@H](OC(N)=O)[C@@H](OC)/C=C\C=C(/C)C(=O)NC(=CC1=O)C2=O [17-AAG, Tanespimycin] | 17 (≈ 9.96 µg/mL) | 175 | 20.3 ± 2.5 | below the detection limit | – | – | – | – |
| CC1(C)C(/C=C/C=C/C=C/C=C2\N(CCCCS(=O)(=O)O)c3ccc4ccccc4c3C2(C)C)=[N+](CCCCS(=O)(=O)[O-])c2ccc3ccccc3c21 [ICG, indocyanine green] | – | – | – | – | rapidly cleared from the circulation | about 50% | over 80% | – |
| CC(=O)O[C@H]1C(=O)[C@@]2(C)[C@H]([C@H](OC(=O)c3ccccc3)[C@]3(O)C[C@H](OC(=O)[C@H](O)[C@@H](NC(=O)c4ccccc4)c4ccccc4)C(C)=C1C3(C)C)[C@]1(OC(C)=O)CO[C@@H]1C[C@@H]2O [paclitaxel, Paclitaxel] | – | 80 | ~40 | below the detection limit | – | – | – | 415.3±56.7 |
